In patent EP0904070B1, “THE USE OF BUCKMINSTERFULLERENE FOR TREATMENT OF NEUROTOXIC INJURY” (F. HOFFMANN-LA ROCHE AG, priority 1996, dated 1997):
One block for each substance: values may come before it.

Assays:
[1] = system: FALS mice (Gurney GI strain); assay: Survival in a transgenic model of amyotrophic lateral sclerosis; type: in vivo; conditions: 15 mg/kg/day, intraperitoneal mini-osmotic pumps from 10 weeks of age
Procedure: The G1 line, with 18 copies and 4 times the SOD activity of wildtype animals, develops motor neuron death by 3-4 months of age, with hindlimb weakness, impaired grooming, and thinning along their flanks. Affected mice were dead before 5 months of age (Gurney et al., 1994).
C60(C(COOH)2)3 was used to treat FALS mice (Gurney GI strain) to determine its ability to treat FALS. At 10 weeks of age, Alzet mino-osmotic pumps (28 day, 6 (l/day, 15 mg/kg/day) containing C60(C(COOH)2)3 (the mixed isomers, which consist of >90% O-3a) or saline were implanted intraperitoneally. The pumps were replaced at 14 weeks of age. Videotaped assessments of open field walking were performed and scored using the Bresnahan scale for spinal cord injury (Basso et al., 1995). As reported by Gurney and colleagues, these animals develop motor symptoms by approximately 90 days of age, and are moribund between 125 and 145 days of age.
The 8 day increase in survival reached statistical significance (p=0.041), by t-test. There was no difference in survival for FALS mice who received no pumps (123 days, n=4) or those treated with saline-filled pumps (125 days, n=6).

cortical neurons [2] = assay: AMPA excitotoxic neuronal injury in neuron-astrocyte co-cultures (LDH efflux); type: cell-based, Mouse
Procedure: (§1) Mouse embryos (gestational day 15) are removed from pregnant anesthetized Swiss-Webster mice, and the neocortex is dissected away from other brain structures. After brief incubation in trypsin, the cells are dissociated by trituration, and the cell suspension is then diluted into plating medium and plated onto previously-prepared 24-well Plastek culture plates coated with poly-D-lysine/laminin (for neuronal cultures) or onto an existing bed of astrocytes (for co-cultures). After 1-2 days in vitro, a partial exchange with glial conditioned medium is made for "pure" neuronal cultures, and cytosine arabinoside (3µM) is added immediately after feeding to inhibit glial proliferation. Mixed cultures are fed biweekly with growth medium until 11-12 days in vitro, when they are fed with serum-free MS containing 2 mM L-glutamine. Unless otherwise stated, cells were used at 14-16 days in vitro.

cortical neurons [3] = assay: NMDA excitotoxic neuronal injury in neuron-astrocyte co-cultures (LDH efflux); type: cell-based, Mouse; conditions: for reduction of neuronal death from NMDA: 300(M, co-applied with NMDA for 10 minutes, assessed at 24 hours), all experiments performed to date
Procedure: as §1, with “Mouse neocortical cultures were prepared as neuron-astrocyte co-cultures (approximately 50% astrocytes) (Rose et al., 1992) or as neuronal cultures (< 2% astrocytes). Mouse” for “Mouse”
Carboxyfullerene (3-300 (M) was co-applied to neuron-astrocyte co-cultures described above with NMDA for assessment of neuroprotection. Brief exposure to NMDA in the presence of the carboxyfullerene was carried out by triple exchange of the medium with HBBSS, followed by addition of 50µM- 500µM NMDA plus carboxyfullerene for 10 minutes. The NMDA and carboxyfullerene were removed by quadruple exchange of the medium with MS, and the cultures were placed in the humidified, CO2 (5%), 37°C incubator for 24 hours, when the extent of injury was assessed.
Neuronal death was assessed at 24 hours after NMDA or AMPA administration by phase contrast microscopy at 200-400x, and by measurement of lactate dehydrogenase (LDH) efflux from dying cells into the bathing medium (Koh and Choi, 1987). Quantitation of cell death was confirmed in some experiments by trypan blue or propidium iodide staining and cell counting.

[4] = system: Cortical neurons in glia-deficient culture; assay: Serum deprivation apoptotic neuronal death in glia-deficient cultures (trypan blue cell counting); type: cell-based, Mouse; conditions: 10 (M, 48 hours after onset of serum-deprivation); 10 µM
Procedure: as §1, with “Mouse neocortical cultures were prepared as neuron-astrocyte co-cultures (approximately 50% astrocytes) (Rose et al., 1992) or as neuronal cultures (< 2% astrocytes). Mouse” for “Mouse”, “vitro. […]” for “vitro.”
Additionally, neuronal cell death was determined at 48 hours removal of serum by counting cells that are no longer able to exclude trypan blue.

wild-type animals = assay: Tolerability in wild-type animals treated two months; type: in vivo, mice; conditions: 15 mg/kg/day
[5] = Solubility in water / aqueous solution; type: physicochemical
Excerpt: Solutions of carboxyfullerene were translucent brown.

NMDA receptors = assay: 45Ca2+ tracer experiments, NMDA-stimulated calcium accumulation in cultured neurons; type: cell-based, Mouse; conditions: co-application of up to 300 (M with NMDA (300 (M), 10 minutes))
Procedure: To verify that protection against NMDA-induced neuronal cell injury was not due to a reduction in NMDA-induced calcium influx, ^45Ca^2+ tracer studies were performed. Cultures were washed twice with HBBSS and then exposed to NMDA (300 (M), either alone or with C60(C(COOH)2)3, in HBBSS containing tracer ^45Ca^2+ (0.5 (Ci/culture well; NEN, Boston, MA). The exposure was terminated after 10 minutes by exchanging the medium four times with unlabelled HBBSS, followed by lysis of the cells by addition of 0.2% sodium dodecyl sulfate (SDS). The cells were left in SDS for 2 hours, and the lysate was then transferred to scintillation vials. An additional wash of each culture well with SDS was added to the vial, which then underwent (-counting.

hepatocytes = assay: Protection from injury in hepatocytes; type: cell-based; conditions: compared with R-3b
[6] = system: endothelial cell cultures; assay: Protection from injury in endothelial cell cultures; type: cell-based; conditions: compared with R-3b
[7] = Spin-trap (DMPO) electron paramagnetic resonance spectroscopy, superoxide radical scavenging (xanthine + xanthine oxidase); conditions: compound co-incubated with xanthine oxidase and xanthine
[8] = Spin-trap (DMPO) electron paramagnetic resonance spectroscopy, hydroxyl radical scavenging; conditions: for scavenging of •OH by EPR: •OH from 100 µM H2O2 in Fe2+ (Fenton reaction), 100 mM DMPO, 4 µM compound
Procedure: Hydroxyl radical (spectra on left): ^•OH in the presence of DMPO alone (top), in the presence of 4 µM O-3a (middle), or in the presence of 4 µM R-3b (bottom). Superoxide radical (right): O2^•- in DMPO alone (top), in the presence of 400 µM O-3a (middle), in the presence of 400 µM R-3b (bottom). The arrow designates a spurious signal due to an unknown radical in the cavity. The sample was analyzed in a quartz flat cell (60 x 10 x 0.25 mm) in a Bruker 200, X-band EPR spectrometer. Settings were power = 1.6 mW, modulation = 1 G, field modulation = 100 Hz, R.G. = 3.2x10^5.

[9] = Spin-label/EPR membrane experiments (5- or 16-doxyl ketostearic acid in brain lipids); type: physicochemical, mouse; conditions: for Lipid/aqueous partition factor: f = hL/hA, measured for 16-doxylstearic acid
Procedure: Values are mean ± SEM, n=8-12 per conditions. * = p<0.05 vs. untreated injury condition, using ANOVA followed by Student-Newman-Keuls test for multiple comparisons. ** = p<0.05 R-3b different than O-3a. […] The spin labels were added to lipids extracted from adult mouse brain at a ratio of 1:100. EPR settings were the same as those listed in the legend for Figure 9. Both isomers produce a shift in the order parameter (S) of the 5-doxyl group, but O-3a produced a greater change in S (Table 1).

Substance: C60(C(COOH)2)3
onset of symptoms [1]: delay in onset of symptoms
delay in death ([1]; versus saline, p = 0.041, mixed isomers, >90% O-3a): 8 ± 2.2 days
reduction of neuronal cell death from AMPA (cortical neurons [2]; 100 (M, 24 hours exposure, MK-801 (10 (M) included, data from 4 experiments pooled)), 100 µM): > 80%
reduction of neuronal death from NMDA (cortical neurons [3]): nearly complete protection
reduction of neuronal death from NMDA (cortical neurons [3]; 300 µM): at least 60%
reduction in neuronal cell death (NMDA) (cortical neurons [3]; pooled data from three experiments (Fig. 5)): 75%
reduction in neuronal death (serum deprivation) [4]: 50%
adverse health or behavioral effects (wild-type animals; n=6): no adverse health or behavioral effects
weights versus untreated littermates (wild-type animals; within genders): similar
soluble in water [5]: at least 50 mM
45Ca2+ accumulation (NMDA receptors): not affected

Lipid/aqueous partition factor [9]: 1.0 ± 0.2
entry into the lipid bilayer ([9]; inferred from order parameter and 16-doxyl signal): to a greater extent than R-3b
Substance: C60(C(COOH)2)3 [Compound O-3a]
protection against AMPA-induced neuronal death, compared with R-3b (cortical neurons [2]; Fig. 10 B, n=8-12 per condition): substantially better protection
protection from injury produced by application of NMDA, compared with R-3b (cortical neurons [3]; Fig. 10 A, n=8-12 per condition): slightly better protection
protection from injury in hepatocytes (hepatocytes): enhanced protection over R-3b
protection from injury in endothelial cell cultures [6]: enhanced protection over R-3b
superoxide radical (spin adduct DMPO-OOH) EPR signal [7]: eliminated the superoxide radical signal
hydroxyl radical (spin adduct DMPO-OH) EPR signal ([8]; 150 (M compound included with H2O2, 15 minute period)): elimination of this OH signal
scavenging of •OH by EPR [8]: extremely potent scavengers

Lipid/aqueous partition factor [9]: 0.6
Substance: C60(C(COOH)2)3 [Compound R-3b]
neuroprotective activity (in words) (cortical neurons [3]; excitotoxic injury by NMDA and AMPA, insult not stated separately): effective neuroprotectant
superoxide radical (spin adduct DMPO-OOH) EPR signal [7]: eliminated the superoxide radical signal
scavenging of •OH by EPR [8]: extremely potent scavengers
